Our source for the melting point values is patent US7288659B2, “Acylaminothiazole derivatives, their preparation and therapeutic use” (Sanofi-Aventis, priority 2001, dated 2007).

Where a name gives a salt, the structure may show the parent alone.

A word on the melting point: it is the temperature of the solid-liquid transition. `C[C@H](NC(=O)Cc1cccc(Cl)c1)C(=O)Nc1ncc(-c2ccccc2COC2CCCCC2)s1` [compound 18, (2S)-2-{[2-(3-chlorophenyl)acetyl]amino}-N-{5-{2-[(cyclohexyloxy)methyl]phenyl}-1,3-thiazol-2-yl}propanamide] registered a melting point of 96 °C. Next, `CC(NC(=O)Cc1ccccc1)C(=O)Nc1ncc(-c2ccccc2COC2CCCCC2)s1` (stereo not drawn) [compound 11, N-(5-{2-[(cyclohexyloxy)methyl]phenyl}-1,3-thiazol-2-yl}-2-[(2-phenylacetyl)amino]propanamide]: 162 °C; `COc1cc(CC(=O)N[C@@H](C)C(=O)Nc2ncc(-c3ccccc3COC3CCCCC3)s2)cc(OC)c1` [compound 35, (2S)-N-(5-{2-[(cyclohexyloxy)methyl]phenyl}-1,3-thiazol-2-yl)-2-{[2-(3,5-dimethoxyphenyl)acetyl]amino}-propanamide]: 73 °C. `CCC[C@H](NC(=O)C(F)(F)c1cc(F)cc(F)c1)C(=O)Nc1ncc(-c2ccccc2COC2CCCCC2)s1` [compound 74, (2S)-N-(5-{2-[(cyclohexyloxy)methyl]phenyl}-1,3-thiazol-2-yl)-2-{[2-(3,5-difluorophenyl)-2,2-difluoroacetyl]amino}pentanamide] came in with a melting point of 68 °C. Molecule `CCC[C@H](NC(=O)C(=O)c1cc(F)cc(F)c1)C(=O)Nc1ncc(-c2ccccc2COC2CCCCC2)s1` [compound 60, (2S)-N-(5-{2-[(cyclohexyloxy)methyl]phenyl}-1,3-thiazol-2-yl)-2-{[2-(3,5-difluorophenyl)-2-oxoacetyl]-amino}pentanamide] yielded a melting point of 77 °C. The result for `CC(C)C(NC(=O)Cc1cc(F)cc(F)c1)C(=O)Nc1ncc(-c2ccccc2COC2CCCCC2)s1` (stereo not drawn) [compound 10, N-(5-{2-[(cyclohexyloxy)methyl]phenyl}-1,3-thiazol-2-yl}-2-{[2-(3,5-difluorophenyl)acetyl]amino}-3-methylbutanamide] reads 181 °C; that for `CCOCc1ccccc1-c1cnc(NC(=O)[C@H](C)NC(=O)Cc2cc(F)cc(F)c2)s1` [compound 41, (2S)-2-{[2-(3,5-difluorophenyl)acetyl]amino)-N-(5-[2-(ethoxymethyl)phenyl]-1,3-thiazol-2-yl}propanamide], 173 °C. Next, `C[C@H](NC(=O)Cc1cccc(OC(F)(F)F)c1)C(=O)Nc1ncc(-c2ccccc2COC2CCCCC2)s1` [compound 48, (2S)-N-(5-{2-[(cyclohexyloxy)methyl]phenyl}-1,3-thiazol-2-yl)-2-{[2-(3-trifluoromethoxyphenyl)acetyl]-amino}propanamide]: 60 °C. In the case of `C[C@H](NC(=O)Cc1cc(F)cc(F)c1)C(=O)Nc1ncc(-c2cccc(COC3CCCCC3)c2)s1` [compound 24, (2S)-N-(5-{3-[(cyclohexyloxy)methyl]phenyl}-1,3-thiazol-2-yl)-2-{[2-(3,5-difluorophenyl)acetyl]amino}-propanamide], the melting point was 123 °C. The result for `C[C@H](NC(=O)Cc1cc(F)cc(F)c1)C(=O)Nc1ncc(-c2ccccc2COC2CCCCC2)s1` [Compound No. 26, (2S)-N-(5-{2-[(cyclohexyloxy)methyl]phenyl}-1,3-thiazol-2-yl)-2-{[2-(3,5-difluorophenyl)acetyl]amino}-propanamide] reads 140 °C; that for `CCC[C@H](NC(=O)[C@@H](O)c1cc(F)cc(F)c1)C(=O)Nc1ncc(-c2ccccc2COC2CCCCC2)s1` [compound 55, (2S)-N-(5-{2-[(cyclohexyloxy)methyl]phenyl}-1,3-thiazol-2-yl)-2-{[(2S)-2-(3,5-difluorophenyl)-2-hydroxyacetyl]amino}pentanamide], 141 °C.

For `CC[C@H](NC(=O)Cc1cc(F)cc(F)c1)C(=O)Nc1ncc(-c2ccccc2COC2CCCCC2)s1` [compound 32, (2S)-N-(5-{2-[(cyclohexyloxy)methyl]phenyl}-1,3-thiazol-2-yl)-2-{[2-(3,5-difluorophenyl)acetyl]amino}-butanamide], the melting point stood at 68 °C. In the case of `COC1CCC(OCc2ccccc2-c2cnc(NC(=O)[C@H](C)NC(=O)Cc3cc(F)cc(F)c3)s2)CC1` (stereo partly drawn) [compound 73, (2S)-2-{[2-(3,5-difluorophenyl)acetyl]amino}-N-[5-(2-{[(4-methoxycyclohexyl)oxy]methyl}phenyl]-1,3-thiazol-2-yl}propanamide], the melting point came out at 149 °C.

Turning to `C[C@H](NC(=O)Cc1cc(F)cc(F)c1)C(=O)Nc1ncc(-c2ccccc2COc2ccccc2)s1` [compound 21, (2S)-2-{[2-(3,5-difluorophenyl)acetyl]amino}-N-{5-[2-(phenoxymethyl)phenyl]-1,3-thiazol-2-yl}propanamide], the melting point came to 78 °C.

Regarding `CCC[C@H](NC(=O)Cc1cc(F)cc(F)c1)C(=O)Nc1nc(C)c(-c2ccccc2COC2CCN(C)CC2)s1` (as salt: phosphate) [compound 68, (2S)-N-(5-{2-[(N-methylpiperidin-4-yloxy)methyl]-phenyl}-4-methyl-1,3-thiazol-2-yl)-2-{[2-(3,5-difluorophenyl)acetyl]amino}pentanamide], the melting point came to 186 °C. As to `C[C@@H](NC(=O)Cc1cc(F)cc(F)c1)C(=O)Nc1ncc(-c2ccccc2COC2CCCCC2)s1` [compound 25, (2R)-N-(5-{2-[(cyclohexyloxy)methyl]phenyl}-1,3-thiazol-2-yl)-2-{[2-(3,5-difluorophenyl)acetyl]amino}-propanamide], the melting point worked out at 95 °C. `Cc1nc(NC(=O)[C@H](C)NC(=O)Cc2cc(F)cc(F)c2)sc1-c1ccccc1COC1CCCC1` [compound 28, (2S)-N-(5-{2-[(cyclopentyloxy)methyl]phenyl}-4-methyl-1,3-thiazol-2-yl)-2-{[2-(3,5-difluorophenyl)-acetyl]amino}propanamide] registered a melting point of 141 °C. The result for `CCC[C@H](NC(=O)Cc1cc(F)cc(F)c1)C(=O)Nc1nc(C(C)C)c(-c2ccccc2COC2CCCCC2)s1` [compound 63, (2S)-N-(5-{2-[(cyclohexyloxy)methyl]phenyl}-4-isopropyl-1,3-thiazol-2-yl)-2-{[2-(3,5-difluorophenyl)-acetyl]amino}pentanamide] reads 74 °C.
